# According to patent US20240158446A1, “CYCLIC COMPOUND HAVING SELECTIVE INHIBITORY ACTION ON KRAS OVER HRAS AND NRAS” (CHUGAI SEIYAKU KABUSHIKI KAISHA, priority 2021, published 2024):
# Experiments:
# [1] = target: GDP-bound KRAS wild-type protein (Homo sapiens, UniProt P01116); experiment: Binding to KRAS by surface plasmon resonance (SPR), Single Cycle Kinetics; settings: SPR, Single Cycle Kinetics, 1:1 binding model; GDP-bound KRAS wild-type protein; read-out: KRAS KD
# [2] = target: GDP-bound NRAS wild-type protein (Homo sapiens, UniProt P01111); experiment: Binding to NRAS by surface plasmon resonance (SPR), Single Cycle Kinetics; settings: SPR; GDP-bound NRAS wild-type protein vs GDP-bound KRAS wild-type protein; KD ratio class
# Chain of GDP-bound NRAS wild-type protein (P01111 whole entry): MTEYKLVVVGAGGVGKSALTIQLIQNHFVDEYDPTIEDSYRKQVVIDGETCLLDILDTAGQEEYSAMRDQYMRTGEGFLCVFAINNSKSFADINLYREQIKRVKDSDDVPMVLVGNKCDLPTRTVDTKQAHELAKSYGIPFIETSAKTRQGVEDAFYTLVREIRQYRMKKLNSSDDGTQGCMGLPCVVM
# [3] = target: GDP-bound HRAS wild-type protein (Homo sapiens, UniProt P01112); experiment: Binding to HRAS by surface plasmon resonance (SPR), Single Cycle Kinetics; settings: SPR; GDP-bound HRAS wild-type protein vs GDP-bound KRAS wild-type protein; KD ratio class
# Chain of GDP-bound HRAS wild-type protein (P01112 whole entry): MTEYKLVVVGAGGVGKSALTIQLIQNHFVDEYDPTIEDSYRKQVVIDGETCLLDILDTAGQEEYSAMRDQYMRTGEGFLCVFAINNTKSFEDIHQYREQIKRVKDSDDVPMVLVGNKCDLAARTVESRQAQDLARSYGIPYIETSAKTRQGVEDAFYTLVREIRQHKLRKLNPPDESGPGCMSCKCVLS
# Chain of GDP-bound KRAS wild-type protein (P01116 whole entry): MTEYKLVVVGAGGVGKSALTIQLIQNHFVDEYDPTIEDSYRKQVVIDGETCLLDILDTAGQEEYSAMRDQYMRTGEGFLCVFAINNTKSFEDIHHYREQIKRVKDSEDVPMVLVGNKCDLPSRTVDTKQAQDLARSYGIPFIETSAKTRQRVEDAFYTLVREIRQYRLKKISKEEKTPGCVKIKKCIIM
SMILES,Kd [1],NRAS/KRAS (ratio of KD value for NRAS to KD value for KRAS) [2],HRAS/KRAS (ratio of KD value for HRAS to KD value for KRAS) [3]
CCO[C@@H]1C[C@H]2C(=O)NC3(CCC3)C(=O)N(C)[C@@H](C3CCCC3)C(=O)N(C)[C@H](C(=O)N(C)C)CC(=O)N(C)[C@@H](CC3CCCC3)C(=O)N[C@@H]([C@@H](C)CC)C(=O)N(C)CC(=O)N(C)[C@H]3C/C=C\CCN(C3=O)[C@@H](Cc3ccc(C)cc3)C(=O)N(C)CC(=O)N[C@@H](CCc3ccc(Cl)c(Cl)c3)C(=O)N2C1 [PP1487],0.34 nM,A (a compound having 10 or more and less than 20 is denoted as A),A (a compound having 10 or more and less than 20 is denoted as A)
"CCO[C@@H]1C[C@H]2C(=O)NC3(CCC3)C(=O)N(C)[C@@H](C3CCCC3)C(=O)N(C)[C@H](C(=O)N(C)C)CC(=O)N(C)[C@@H](CC(C)C)C(=O)N[C@@H]([C@@H](C)CC)C(=O)N(C)CC(=O)N(C)[C@H]3C/C=C\CCN(C3=O)[C@@H](Cc3ccc(F)cc3)C(=O)N(C)CC(=O)N[C@@H](CCc3cc(F)c(C(F)(F)F)c(F)c3)C(=O)N2C1 [PP1488, (2S,8S,12R,14S,20S,23S,27S,30S,36S,38Z)-20-cyclopentyl-8-[2-[3,5-difluoro-4-(trifluoromethyl)phenyl]ethyl]-12-ethoxy-2-[(4-fluorophenyl)methyl]-27-isobutyl-N,N,4,19,22,26,32,35-octamethyl-30-[(1S)-1-methylpropyl]-3,6,9,15,18,21,25,28,31,34,42-undecaoxo-spiro[1,4,7,10,16,19,22,26,29,32,35-undecazatricyclo[34.5.1.0^10,14]dotetracont-38-ene-17,1′-cyclobutane]-23-carboxamide]",0.081 nM,A (a compound having 10 or more and less than 20 is denoted as A),B (a compound having 3 or more and less than 10 is denoted as B)
CCO[C@@H]1C[C@H]2C(=O)NC3(CCC3)C(=O)N(C)[C@@H](C3CCCC3)C(=O)N(C)[C@H](C)CC(=O)N(C)[C@@H](CC3CC3)C(=O)N[C@@H]([C@@H](C)CC)C(=O)N(C)CC(=O)N(C)[C@H]3C/C=C\CCN(C3=O)[C@@H](Cc3ccc(F)cc3)C(=O)N(C)CC(=O)N[C@@H](CCc3cc(F)c(C(F)(F)F)c(F)c3)C(=O)N2C1 [PP1490],0.6 nM,B (a compound having 3 or more and less than 10 is denoted as B),B (a compound having 3 or more and less than 10 is denoted as B)
CCO[C@@H]1C[C@H]2C(=O)NC3(CCC3)C(=O)N(C)[C@@H](C3CCCC3)C(=O)N(C)[C@H](C(=O)N3CCOCC3)CC(=O)N(C)[C@@H](CC3CC3)C(=O)N[C@@H]([C@@H](C)CC)C(=O)N(C)CC(=O)N(C)[C@H]3C/C=C\CCN(C3=O)[C@@H](Cc3ccc(F)cc3)C(=O)N(C)CC(=O)N[C@@H](CCc3cc(F)c(C(F)(F)F)c(F)c3)C(=O)N2C1 [PP1496],0.26 nM,A (a compound having 10 or more and less than 20 is denoted as A),B (a compound having 3 or more and less than 10 is denoted as B)
"CC[C@H](C)[C@@H]1NC(=O)[C@H](CC2CC2)N(C)C(=O)C[C@@H](C(=O)N(C)C)N(C)C(=O)[C@H](C2CCCC2)N(C)C(=O)C2(CCC2)NC(=O)[C@@H]2C[C@@H](F)CN2C(=O)[C@H](CCc2cc(F)c(C(F)(F)F)c(F)c2)NC(=O)CN(C)C(=O)[C@H](Cc2ccc(C(F)(F)F)cc2)N2CC/C=C\C[C@@H](C2=O)N(C)C(=O)CN(C)C1=O [PP1497, (2S,8S,12R,14S,20S,23S,27S,30S,36S,38Z)-20-cyclopentyl-27-(cyclopropylmethyl)-8-[2-[3,5-difluoro-4-(trifluoromethyl)phenyl]ethyl]-12-fluoro-N,N,4,19,22,26,32,35-octamethyl-30-[(1S)-1-methylpropyl]-3,6,9,15,18,21,25,28,31,34,42-undecaoxo-2-[[4-(trifluoromethyl)phenyl]methyl]spiro[1,4,7,10,16,19,22,26,29,32,35-undecazatricyclo[34.5.1.0^10,14]dotetracont-38-ene-17,1′-cyclobutane]-23-carboxamide]",0.022 nM,A (a compound having 10 or more and less than 20 is denoted as A),A (a compound having 10 or more and less than 20 is denoted as A)
CC[C@H](C)[C@@H]1NC(=O)[C@H](CC2CC2)N(C)C(=O)C[C@@H](C(=O)N(C)C)N(C)C(=O)[C@H](C2CCCC2)N(C)C(=O)C2(CCC2)NC(=O)[C@@H]2C[C@@H](C(F)(F)F)CN2C(=O)[C@H](CCc2cc(F)c(C(F)(F)F)c(F)c2)NC(=O)CN(C)C(=O)[C@H](Cc2ccc(C(F)(F)F)cc2)N2CC/C=C\C[C@@H](C2=O)N(C)C(=O)CN(C)C1=O [PP1498],0.069 nM,A (a compound having 10 or more and less than 20 is denoted as A),A (a compound having 10 or more and less than 20 is denoted as A)
"CC[C@H](C)[C@@H]1NC(=O)[C@H](CC2CC2)N(C)C(=O)C[C@@H](C(=O)N(C)C)N(C)C(=O)[C@H](C2CCCC2)N(C)C(=O)C2(CCC2)NC(=O)[C@@H]2C[C@H](C)CN2C(=O)[C@H](CCc2cc(F)c(C(F)(F)F)c(F)c2)NC(=O)CN(C)C(=O)[C@H](Cc2ccc(C(F)(F)F)cc2)N2CC/C=C\C[C@@H](C2=O)N(C)C(=O)CN(C)C1=O [PP1499, (2S,8S,12S,14S,20S,23S,27S,30S,36S,38Z)-20-cyclopentyl-27-(cyclopropylmethyl)-8-[2-[3,5-difluoro-4-(trifluoromethyl)phenyl]ethyl]-N,N,4,12,19,22,26,32,35-nonamethyl-30-[(1S)-1-methylpropyl]-3,6,9,15,18,21,25,28,31,34,42-undecaoxo-2-[[4-(trifluoromethyl)phenyl]methyl]spiro[1,4,7,10,16,19,22,26,29,32,35-undecazatricyclo[34.5.1.0^10,14]dotetracont-38-ene-17,1′-cyclobutane]-23-carboxamide]",0.054 nM,A (a compound having 10 or more and less than 20 is denoted as A),B (a compound having 3 or more and less than 10 is denoted as B)
"CC[C@H](C)[C@@H]1NC(=O)[C@H](CC2CC2)N(C)C(=O)C[C@@H](C(=O)N(C)C)N(C)C(=O)[C@H](C2CCCC2)N(C)C(=O)C2(CCC2)NC(=O)[C@@H]2CC(F)(F)CN2C(=O)[C@H](CCc2cc(F)c(C(F)(F)F)c(F)c2)NC(=O)CN(C)C(=O)[C@H](Cc2ccc(C(F)(F)F)cc2)N2CC/C=C\C[C@@H](C2=O)N(C)C(=O)CN(C)C1=O [PP1500, (2S,8S,14S,20S,23S,27S,30S,36S,38Z)-20-cyclopentyl-27-(cyclopropylmethyl)-8-[2-[3,5-difluoro-4-(trifluoromethyl)phenyl]ethyl]-12,12-difluoro-N,N,4,19,22,26,32,35-octamethyl-30-[(1S)-1-methylpropyl]-3,6,9,15,18,21,25,28,31,34,42-undecaoxo-2-[[4-(trifluoromethyl)phenyl]methyl]spiro[1,4,7,10,16,19,22,26,29,32,35-undecazatricyclo[34.5.1.0^10,14]dotetracont-38-ene-17,1′-cyclobutane]-23-carboxamide]",0.039 nM,A (a compound having 10 or more and less than 20 is denoted as A),A (a compound having 10 or more and less than 20 is denoted as A)
"CC[C@H](C)[C@@H]1NC(=O)[C@H](CC2CC2)N(C)C(=O)C[C@@H](C(=O)N(C)C)N(C)C(=O)[C@H](C2CCCC2)N(C)C(=O)C2(CC(C)(C)C2)NC(=O)[C@@H]2C[C@@H](F)CN2C(=O)[C@H](CCc2cc(F)c(C(F)(F)F)c(F)c2)NC(=O)CN(C)C(=O)[C@H](Cc2ccc(C(F)(F)F)cc2)N2CC/C=C\C[C@@H](C2=O)N(C)C(=O)CN(C)C1=O [PP1501, (2S,8S,12R,14S,20S,23S,27S,30S,36S,38Z)-20-cyclopentyl-27-(cyclopropylmethyl)-8-[2-[3,5-difluoro-4-(trifluoromethyl)phenyl]ethyl]-12-fluoro-N,N,3′,3′,4,19,22,26,32,35-decamethyl-30-[(1S)-1-methylpropyl]-3,6,9,15,18,21,25,28,31,34,42-undecaoxo-2-[[4-(trifluoromethyl)phenyl]methyl]spiro[1,4,7,10,16,19,22,26,29,32,35-undecazatricyclo[34.5.1.0^10,14]dotetracont-38-ene-17,1′-cyclobutane]-23-carboxamide]",0.024 nM,A (a compound having 10 or more and less than 20 is denoted as A),A (a compound having 10 or more and less than 20 is denoted as A)
CC[C@H](C)[C@@H]1NC(=O)[C@H](CC2CCCC2)N(C)C(=O)C[C@@H](C(=O)N(C)C)N(C)C(=O)[C@H](C2CCCC2)N(C)C(=O)C2(CCC2)NC(=O)[C@@H]2C[C@@H](F)CN2C(=O)[C@H](CCc2cc(F)c(C(F)(F)F)c(F)c2)NC(=O)CN(C)C(=O)[C@H](Cc2ccc(C(F)(F)F)cc2)N2CC/C=C\C[C@@H](C2=O)N(C)C(=O)CN(C)C1=O [PP1502],0.038 nM,A (a compound having 10 or more and less than 20 is denoted as A),A (a compound having 10 or more and less than 20 is denoted as A)
CC[C@H](C)[C@@H]1NC(=O)[C@H](CC2CC2)N(C)C(=O)C[C@@H](C(=O)N2CCCC2)N(C)C(=O)[C@H](C2CCCC2)N(C)C(=O)C2(CCCC2)NC(=O)[C@@H]2C[C@@H](F)CN2C(=O)[C@H](CCc2cc(F)c(C(F)(F)F)c(F)c2)NC(=O)CN(C)C(=O)[C@H](Cc2ccc(C(F)(F)F)cc2)N2CC/C=C\C[C@@H](C2=O)N(C)C(=O)CN(C)C1=O [PP1503],0.11 nM,A (a compound having 10 or more and less than 20 is denoted as A),A (a compound having 10 or more and less than 20 is denoted as A)
